Experimental data taken from patent publication US7371766B2, “Curcumin analogs with anti-tumor and anti-angiogenic properties” (Emory University, priority 1999, dated 2008).

What was measured:
[1] = test system: Sixty human tumor cell lines; assay: cells; conditions: 48 h; for GI50: read-out: Median Growth Inhibitory Concentration (GI50), Mean; for CC50: read-out: Median Lethal Concentration (LC50), Mean
MOLT-4 = assay: cells; conditions: Homo sapiens, MOLT-4, 48 h; for GI50: read-out: Median Growth Inhibitory Concentration (GI50); for CC50: read-out: Median Lethal Concentration (LC50)
SR = assay: cells; conditions: Homo sapiens, 48 h; for GI50: read-out: Median Growth Inhibitory Concentration (GI50); for CC50: read-out: Median Lethal Concentration (LC50)
SK-MEL-28 = assay: cells; conditions: Homo sapiens, SK-MEL-28, 48 h; for GI50: read-out: Median Growth Inhibitory Concentration (GI50); for CC50: read-out: Median Lethal Concentration (LC50)
MDA-N = assay: cells; conditions: Homo sapiens, 48 h; for GI50: read-out: Median Growth Inhibitory Concentration (GI50); for CC50: read-out: Median Lethal Concentration (LC50)
786-0 = assay: cells; conditions: Homo sapiens, 786-0, 48 h; for GI50: read-out: Median Growth Inhibitory Concentration (GI50); for CC50: read-out: Median Lethal Concentration (LC50)
CAKI-1 = assay: cells; conditions: Homo sapiens, CAKI-1, 48 h; for GI50: read-out: Median Growth Inhibitory Concentration (GI50); for CC50: read-out: Median Lethal Concentration (LC50)
NCI-H460 = assay: cells; conditions: Homo sapiens, NCI-H460, 48 h; for GI50: read-out: Median Growth Inhibitory Concentration (GI50); for CC50: read-out: Median Lethal Concentration (LC50)
A549 = assay: cells; conditions: Homo sapiens, A549, 48 h; for GI50: read-out: Median Growth Inhibitory Concentration (GI50); for CC50: read-out: Median Lethal Concentration (LC50)
RPMI-8226 = assay: cells; conditions: Homo sapiens, RPMI-8226, 48 h; for GI50: read-out: Median Growth Inhibitory Concentration (GI50)
HCT-116 = assay: cells; conditions: Homo sapiens, HCT-116, 48 h; for GI50: read-out: Median Growth Inhibitory Concentration (GI50); for CC50: read-out: Median Lethal Concentration (LC50)
SW-620 = assay: cells; conditions: Homo sapiens, SW-620, 48 h; for GI50: read-out: Median Growth Inhibitory Concentration (GI50); for CC50: read-out: Median Lethal Concentration (LC50)
OVCAR-8 = assay: cells; conditions: Homo sapiens, OVCAR-8, 48 h; for GI50: read-out: Median Growth Inhibitory Concentration (GI50); for CC50: read-out: Median Lethal Concentration (LC50)
HS 578T = assay: cells; conditions: Homo sapiens, 48 h; for GI50: read-out: Median Growth Inhibitory Concentration (GI50); for CC50: read-out: Median Lethal Concentration (LC50)
SF-539 = assay: cells; conditions: Homo sapiens, SF-539, 48 h; for GI50: read-out: Median Growth Inhibitory Concentration (GI50); for CC50: read-out: Median Lethal Concentration (LC50)
MCF-7 = assay: cells; conditions: Homo sapiens, MCF7, 48 h; for GI50: read-out: Median Growth Inhibitory Concentration (GI50); for CC50: read-out: Median Lethal Concentration (LC50)
SK-OV-3 = assay: cells; conditions: Homo sapiens, SK-OV-3, 48 h; for GI50: read-out: Median Growth Inhibitory Concentration (GI50); for CC50: read-out: Median Lethal Concentration (LC50)
KM12 = assay: cells; conditions: Homo sapiens, KM12, 48 h; for GI50: read-out: Median Growth Inhibitory Concentration (GI50); for CC50: read-out: Median Lethal Concentration (LC50)
NCI-H23 = assay: cells; conditions: Homo sapiens, NCI-H23, 48 h; for GI50: read-out: Median Growth Inhibitory Concentration (GI50); for CC50: read-out: Median Lethal Concentration (LC50)
OVCAR-3 = assay: cells; conditions: Homo sapiens, OVCAR-3, 48 h; for GI50: read-out: Median Growth Inhibitory Concentration (GI50); for CC50: read-out: Median Lethal Concentration (LC50)
MDA-MB-435 = assay: cells; conditions: Homo sapiens, MDA-MB-435, 48 h; for GI50: read-out: Median Growth Inhibitory Concentration (GI50); for CC50: read-out: Median Lethal Concentration (LC50)
OVCAR-4 = assay: cells; conditions: Homo sapiens, OVCAR-4, 48 h; for GI50: read-out: Median Growth Inhibitory Concentration (GI50); for CC50: read-out: Median Lethal Concentration (LC50)
UO-31 = assay: cells; conditions: Homo sapiens, UO-31, 48 h; for GI50: read-out: Median Growth Inhibitory Concentration (GI50); for CC50: read-out: Median Lethal Concentration (LC50)
LOX IMVI = assay: cells; conditions: Homo sapiens, 48 h; for GI50: read-out: Median Growth Inhibitory Concentration (GI50)
K-562 = assay: cells; conditions: Homo sapiens, K562, 48 h; for GI50: read-out: Median Growth Inhibitory Concentration (GI50); for CC50: read-out: Median Lethal Concentration (LC50)
HCC-2998 = assay: cells; conditions: Homo sapiens, HCC 2998, 48 h; for GI50: read-out: Median Growth Inhibitory Concentration (GI50); for CC50: read-out: Median Lethal Concentration (LC50)
[2] = test system: Vascular Endothelial Growth Factor (VEGF) production by human melanoma cell line RPMI-7951; assay: VEGF ELISA, RPMI-7951; conditions: for activity at 5 µM / activity at 20 µM: Homo sapiens, RPMI-7951, 72 h, read-out: VEGF; for VEGF ELISA / VEGF: RPMI-7951; for VEGF ELISA: DMSO control 3713
Protocol: RPMI-795 1, MDA-MB-231 and MDA-MB-435 cell lines were cultured in MEM-alpha medium (GIBCO-BRL, Long Island, N.Y.) containing 10% fetal bovine serum (RPMI-7951, MDA-MB-231) or 5% FBS (MDA-MB-435) at 37° C. and under 5% CO2/95% air. […] The cells were cultured in 48 well plates in all of the experiments described.
A VEGF enzyme-linked immunosorbent assay (ELISA) was utilized to determine the effect of the compounds of the present invention on VEGF production of a variety of human cancer cell lines. For the VEGF assay, cells were plated at a concentration of 80,000 cells/well and cultured overnight. Compounds or vehicle (DMSO 0.1%) were then added and the plates were incubated for 72 hours. Supernatant was then collected from each well and frozen in a −80° C. freezer until needed. Cell viability was determined by Neutral Red Assay. VEGF ELISA Kit (R & D, Minneapolis, Minn.) was used to determine the amount of VEGF in the culture supernatants. The ELISA was carried out according to the manufacturer's procedure.

SK-MEL-5 = assay: cells; conditions: Homo sapiens, SK-MEL-5, 48 h; for GI50: read-out: Median Growth Inhibitory Concentration (GI50)
IGROV1 = assay: cells; conditions: Homo sapiens, IGROV-1, 48 h; for GI50: read-out: Median Growth Inhibitory Concentration (GI50); for CC50: read-out: Median Lethal Concentration (LC50)
[3] = 5 μM, DMSO control 4197 (EF-25: 1045)
[4] = read-out: Median Lethal Concentration (LC50)

SMILES: COc1cc(/C=C/C(=O)CC(=O)/C=C/c2ccc(O)c(OC)c2)ccc1O [Curcumin]
- GI50 [1]: 6.7 µM
- CC50 [1]: 66 µM
- GI50 (MOLT-4): 5 µM
- CC50 (MOLT-4): 79.4 µM
- GI50 (SR): 3.2 µM
- CC50 (SR): 79.4 µM
- GI50 (SK-MEL-28): 5 µM
- CC50 (SK-MEL-28): 50.1 µM
- GI50 (MDA-N): 2.5 µM
- CC50 (MDA-N): 31.6 µM
- GI50 (786-0): 3.2 µM
- CC50 (786-0): 39.8 µM
- GI50 (CAKI-1): 12.6 µM
- CC50 (CAKI-1): 50.1 µM
- GI50 (NCI-H460): 7.9 µM
- CC50 (NCI-H460): 63.1 µM
- GI50 (A549): 12.6 µM
- CC50 (A549): 79.4 µM
- GI50 (RPMI-8226): 2 µM
- GI50 (HCT-116): 3.2 µM
- CC50 (HCT-116): 50.1 µM
- GI50 (SW-620): 4 µM
- CC50 (SW-620): 79.4 µM
- GI50 (OVCAR-8): 7.9 µM
- CC50 (OVCAR-8): 79.4 µM
- GI50 (HS 578T): 10 µM
- CC50 (HS 578T): < 100 µM
- GI50 (SF-539): 3.2 µM
- CC50 (SF-539): 31.6 µM
- GI50 (MCF-7): 3.2 µM
- CC50 (MCF-7): < 100 µM
- GI50 (SK-OV-3): 7.9 µM
- CC50 (SK-OV-3): 50.1 µM
- GI50 (KM12): 5 µM
- CC50 (KM12): 63.1 µM
- GI50 (NCI-H23): 5 µM
- CC50 (NCI-H23): < 100 µM
- GI50 (OVCAR-3): 6.3 µM
- CC50 (OVCAR-3): 63.1 µM
- GI50 (MDA-MB-435): 3.2 µM
- CC50 (MDA-MB-435): 39.8 µM
- GI50 (OVCAR-4): 10 µM
- CC50 (OVCAR-4): < 100 µM
- GI50 (UO-31): 12.6 µM
- CC50 (UO-31): 50.1 µM
- GI50 (LOX IMVI): 2.5 µM
- GI50 (K-562): 3.2 µM
- CC50 (K-562): < 100 µM
- GI50 (HCC-2998): 3.2 µM
- CC50 (HCC-2998): 31.6 µM
- activity at 5 µM [2]: 98%
- activity at 20 µM [2]: 5%
- VEGF ELISA ([2]; 5 μM): 3989 pg/ml/well
- VEGF [2, 3]: 4111 pg/mL
- VEGF ELISA ([2]; 20 μM): 714 pg/ml/well
- VEGF ([2]; 20 μM, DMSO control 4197): 221 pg/mL
- GI50 (SK-MEL-5): 7.9 µM
- GI50 (IGROV1): 7.9 µM
- CC50 (IGROV1): 79.4 µM

SMILES: O=C(C=Cc1ccc(F)cc1F)C=Cc1ccc(F)cc1F [EF9, 1,5-Bis(2,4-difluorophenyl)penta-1,4-dien-3-one]
- GI50 [1]: 7.2 µM
- CC50 [1]: 52.5 µM
- GI50 (MOLT-4): 9.3 µM
- CC50 (MOLT-4): > 100 µM
- GI50 (SR): 1.2 µM
- CC50 (SR): 77.9 µM
- GI50 (SK-MEL-28): 18.6 µM
- CC50 (SK-MEL-28): 61.1 µM
- GI50 (MDA-N): 2.9 µM
- CC50 (MDA-N): 33.2 µM
- GI50 (786-0): 3.5 µM
- CC50 (786-0): 49.6 µM
- GI50 (CAKI-1): 15 µM
- CC50 (CAKI-1): 93.4 µM
- GI50 (NCI-H460): 12.7 µM
- CC50 (NCI-H460): 60.9 µM
- GI50 (A549): 8.9 µM
- CC50 (A549): 71 µM
- GI50 (RPMI-8226): 2.4 µM
- CC50 (RPMI-8226; [4]): 95.6 µM
- GI50 (HCT-116): 1.9 µM
- CC50 (HCT-116): 7.7 µM
- GI50 (SW-620): 3.2 µM
- CC50 (SW-620): 62.6 µM
- GI50 (OVCAR-8): 3.4 µM
- CC50 (OVCAR-8): 85.3 µM
- GI50 (HS 578T): 9.9 µM
- CC50 (HS 578T): > 100 µM
- GI50 (SF-539): 2.6 µM
- CC50 (SF-539): 23.1 µM
- GI50 (MCF-7): 3 µM
- CC50 (MCF-7): 42.2 µM
- GI50 (SK-OV-3): 15.4 µM
- CC50 (SK-OV-3): 53.7 µM
- GI50 (KM12): 2.3 µM
- CC50 (KM12): 14.6 µM
- GI50 (NCI-H23): 12.3 µM
- CC50 (NCI-H23): 62.3 µM
- GI50 (OVCAR-3): 14.1 µM
- CC50 (OVCAR-3): 52.1 µM
- GI50 (MDA-MB-435): 3.2 µM
- CC50 (MDA-MB-435): 35.9 µM
- GI50 (OVCAR-4): 15.2 µM
- CC50 (OVCAR-4): 61.6 µM
- GI50 (UO-31): 9.6 µM
- CC50 (UO-31): 49.5 µM
- GI50 (LOX IMVI): 3.4 µM
- CC50 (LOX IMVI; [4]): 67.6 µM
- GI50 (K-562): 3.5 µM
- CC50 (K-562): > 100 µM
- GI50 (HCC-2998): 3.3 µM
- CC50 (HCC-2998): 32.2 µM
- activity at 5 µM [2]: 46%
- activity at 20 µM [2]: 14%
- VEGF ELISA ([2]; 5 μM): 1868 pg/ml/well
- VEGF [2, 3]: 1925 pg/mL
- VEGF ELISA ([2]; 20 μM): 705 pg/ml/well
- VEGF ([2]; 20 μM, DMSO control 4197): 595 pg/mL
- GI50 (SK-MEL-5): 12.1 µM
- CC50 (SK-MEL-5; [4]): 53.1 µM
- GI50 (IGROV1): 3.8 µM
- CC50 (IGROV1): 46.2 µM
